Read-outs that look alike come from different tables or passages of the source.
Key:
AsPC-1 (K-Ras G12D) [1] = test: Potency assay: pERK in AsPC-1 cells; type: cell-based; settings: Homo sapiens
AsPC-1 (K-Ras G12D) [2] = test: CellTiter-Glo cell viability assay, AsPC-1; type: cell-based; settings: Homo sapiens, ASPC1, 120 h
Outline: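 Luminescent viability readout on day 5, plates first brought to room temperature for ~30 min; compounds added straight to plated RAS-mutant cells. Values expressed as percent of mean DMSO signal, curves fitted with a four-parameter logistic model.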

KRAS G13D = KRAS G13D (Homo sapiens, UniProt P01116+P62937, G13D); test: Ras-Raf disruption/FRET/MOA assay, KRAS G13D; type: biochemical
Sequence of KRAS G13D (P01116 1-169 isoform P01116-2 G13D limits assumed): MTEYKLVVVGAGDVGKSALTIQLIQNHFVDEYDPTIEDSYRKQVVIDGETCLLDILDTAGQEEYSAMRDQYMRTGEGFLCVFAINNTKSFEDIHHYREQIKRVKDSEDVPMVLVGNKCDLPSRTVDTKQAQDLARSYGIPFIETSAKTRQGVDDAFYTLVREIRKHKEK
Sequence of KRAS G13D (P62937 whole entry, the tested form may be a part): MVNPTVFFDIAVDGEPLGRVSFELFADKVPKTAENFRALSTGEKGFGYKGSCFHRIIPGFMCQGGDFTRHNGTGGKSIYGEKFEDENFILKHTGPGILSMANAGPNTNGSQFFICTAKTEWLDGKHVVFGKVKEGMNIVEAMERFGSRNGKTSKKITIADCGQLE
Text: (§1) Disruption of B-Raf Ras-Binding Domain (BRAF^RBD) Interaction with K-Ras by Compounds of the Invention (Also Called a FRET Assay or an MOA Assay)
(§2) Note—The following protocol describes a procedure for monitoring disruption of K-Ras G12C (GMP-PNP) binding to BRAF^RBD by a compound of the invention. This protocol may also be executed substituting other Ras proteins or nucleotides, such as K-Ras G12D and K-Ras G13D.
(§3) The purpose of this biochemical assay was to measure the ability of test compounds to facilitate ternary complex formation between a nucleotide-loaded K-Ras isoform and Cyclophilin A; the resulting ternary complex disrupts binding to a BRAF^RBD construct, inhibiting K-Ras signaling through a RAF effector.
(§4) In assay buffer containing 25 mM HEPES pH 7.3, 0.002% Tween20, 0.1% BSA, 100 mM NaCl and 5 mM MgCl2, tagless Cyclophilin A, His6-K-Ras-GMPPNP, and GST-BRAF^RBD were combined in a 384-well assay plate at final concentrations of 25 μM, 12.5 nM, and 50 nM, respectively. Compound was present in plate wells as a 10-point 3-fold dilution series starting at a final concentration of 30 μM. After incubation at 25° C. for 3 hours, a mixture of anti-His Eu-W1024 and anti-GST allophycocyanin was then added to assay sample wells at final concentrations of 10 nM and 50 nM, respectively, and the reaction incubated for an additional 1.5 hours. […] Compounds that facilitate disruption of a K-Ras:RAF complex were identified as those eliciting a decrease in the TR-FRET ratio relative to DMSO control wells.

KRAS G12S = KRAS G12S (Homo sapiens, UniProt P01116+P62937, G12S); test: Ras-Raf disruption/FRET/MOA assay, KRAS G12S; type: biochemical
Sequence of KRAS G12S (P01116 1-169 isoform P01116-2 G12S limits assumed): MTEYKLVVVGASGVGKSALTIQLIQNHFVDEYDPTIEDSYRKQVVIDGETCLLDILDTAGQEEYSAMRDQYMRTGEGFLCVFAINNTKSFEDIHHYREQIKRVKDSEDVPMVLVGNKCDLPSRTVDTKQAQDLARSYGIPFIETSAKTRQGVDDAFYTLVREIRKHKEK
Sequence of KRAS G12S (P62937 whole entry): as the sequence (P62937 whole entry, the tested form may be a part) above
Text: as §1, §2, §3, §4

KRAS G13C = KRAS G13C (Homo sapiens, UniProt P01116+P62937, G13C); test: Ras-Raf disruption/FRET/MOA assay, KRAS G13C; type: biochemical
Sequence of KRAS G13C (P01116 1-169 isoform P01116-2 G13C limits assumed): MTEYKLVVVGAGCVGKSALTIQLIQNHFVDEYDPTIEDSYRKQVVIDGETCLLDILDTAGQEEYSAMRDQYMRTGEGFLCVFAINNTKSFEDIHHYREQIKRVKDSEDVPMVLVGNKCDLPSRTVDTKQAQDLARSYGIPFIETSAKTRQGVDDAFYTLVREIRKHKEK
Sequence of KRAS G13C (P62937 whole entry): as the sequence (P62937 whole entry, the tested form may be a part) above
Text: as §1, §2, §3, §4

KRAS G12V = KRAS G12V (Homo sapiens, UniProt P01116+P62937, G12V); test: Ras-Raf disruption/FRET/MOA assay, KRAS G12V; type: biochemical
Sequence of KRAS G12V (P01116 1-169 isoform P01116-2 G12V limits assumed): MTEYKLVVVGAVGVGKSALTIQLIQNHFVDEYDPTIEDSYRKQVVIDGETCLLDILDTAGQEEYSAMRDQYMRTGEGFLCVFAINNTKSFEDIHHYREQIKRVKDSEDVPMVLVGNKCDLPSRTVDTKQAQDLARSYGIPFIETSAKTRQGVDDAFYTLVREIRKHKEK
Sequence of KRAS G12V (P62937 whole entry): as the sequence (P62937 whole entry, the tested form may be a part) above
Text: as §1, §2, §3, §4

KRAS G12D = KRAS G12D (Homo sapiens, UniProt P01116+P62937, G12D); test: Ras-Raf disruption/FRET/MOA assay, KRAS G12D; type: biochemical
Sequence of KRAS G12D (P01116 1-169 isoform P01116-2 G12D limits assumed): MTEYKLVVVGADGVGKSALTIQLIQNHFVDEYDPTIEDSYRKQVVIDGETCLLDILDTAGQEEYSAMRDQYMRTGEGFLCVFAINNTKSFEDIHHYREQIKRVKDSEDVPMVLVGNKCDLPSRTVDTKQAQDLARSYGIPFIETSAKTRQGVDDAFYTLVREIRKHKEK
Sequence of KRAS G12D (P62937 whole entry): as the sequence (P62937 whole entry, the tested form may be a part) above
Text: as §1, §2, §3, §4

KRAS WT = KRAS WT (Homo sapiens, UniProt P01116+P62937); test: Ras-Raf disruption/FRET/MOA assay, KRAS WT; type: biochemical
Sequence of KRAS WT (P01116 1-169 isoform P01116-2 limits assumed): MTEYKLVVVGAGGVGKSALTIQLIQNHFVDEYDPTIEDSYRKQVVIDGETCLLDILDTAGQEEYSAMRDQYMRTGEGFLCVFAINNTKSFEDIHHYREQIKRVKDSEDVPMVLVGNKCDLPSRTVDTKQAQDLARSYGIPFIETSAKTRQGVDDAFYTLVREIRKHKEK
Sequence of KRAS WT (P62937 whole entry): as the sequence (P62937 whole entry, the tested form may be a part) above
Text: as §1, §2, §3, §4

KRAS G12C = KRAS G12C (Homo sapiens, UniProt P01116+P62937, G12C); test: Ras-Raf disruption/FRET/MOA assay, KRAS G12C; type: biochemical
Sequence of KRAS G12C (P01116 1-169 isoform P01116-2 G12C limits assumed): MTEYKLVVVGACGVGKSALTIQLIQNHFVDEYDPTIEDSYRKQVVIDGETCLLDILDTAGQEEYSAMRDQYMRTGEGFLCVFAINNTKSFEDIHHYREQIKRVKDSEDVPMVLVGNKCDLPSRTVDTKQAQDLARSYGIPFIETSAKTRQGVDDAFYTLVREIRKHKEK
Sequence of KRAS G12C (P62937 whole entry): as the sequence (P62937 whole entry, the tested form may be a part) above
Text: as §1, §2, §3, §4

NRAS G12C = target: T1, NRAS G12C (Homo sapiens, UniProt P01111+P62937, G12C); test: Ras-Raf disruption/FRET/MOA assay, NRAS G12C; type: biochemical
T1 construct: His6
T1 sequence (P01111 whole entry G12C): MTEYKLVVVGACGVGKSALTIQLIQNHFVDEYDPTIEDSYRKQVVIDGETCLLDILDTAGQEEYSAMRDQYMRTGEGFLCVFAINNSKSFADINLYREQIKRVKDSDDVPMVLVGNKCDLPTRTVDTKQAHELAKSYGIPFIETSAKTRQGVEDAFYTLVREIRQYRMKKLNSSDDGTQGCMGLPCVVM
T1 sequence (P62937 whole entry): as the sequence (P62937 whole entry, the tested form may be a part) above
Text: as §1, §2, §3, §4

[3] = ASPC1, read-out: pERK EC50 (AsPC-1 KRAS G12D)
[4] = read-out: AsPC-1 Cell Viability IC50
[5] = disruption of BRAF RBD binding, with Cyclophilin A, read-out: KRAS G13D FRET IC50
[6] = disruption of BRAF RBD binding, with Cyclophilin A, read-out: KRAS G12S FRET IC50
[7] = disruption of BRAF RBD binding, with Cyclophilin A, read-out: KRAS G13C FRET IC50
[8] = disruption of BRAF RBD binding, with Cyclophilin A, read-out: KRAS G12V FRET IC50
[9] = disruption of BRAF RBD binding, with Cyclophilin A, read-out: KRAS G12D FRET IC50
[10] = disruption of BRAF RBD binding, with Cyclophilin A, read-out: KRAS WT FRET IC50
[11] = disruption of BRAF RBD binding, with Cyclophilin A, read-out: KRAS G12C FRET IC50
[12] = NRAS G12C, read-out: NRAS G12C FRET data IC50
[13] = ASPC1, AsPC-1 cells, K-Ras G12D, read-out: pERK EC50 (AsPC-1 KRAS G12D)
[14] = AsPC-1, K-Ras G12D, 5-day treatment, read-out: AsPC-1 Cell Viability IC50

CCn1c(-c2cnccc2COC)c2c3cc(ccc31)-c1cc(O)cc(c1)C[C@H](NC(=O)[C@H](C(C)C)N(C)C(=O)CN(C)C(=O)[C@@H]1[C@H](C3CC3)N1[S@@+]([O-])C(C)(C)C)C(=O)N1CCC[C@H](N1)C(=O)OCC(C)(C)C2 (stereo partly shown) [Compound 101]
EC50 (AsPC-1 (K-Ras G12D) [1]; [3]): < 5000 nM
IC50 (AsPC-1 (K-Ras G12D) [2]; [4]): 1000 to 10000 nM
IC50 (KRAS G13D; [5]): 100 to 1000 nM
IC50 (KRAS G12S; [6]): 100 to 1000 nM
IC50 (KRAS G13C; [7]): 100 to 1000 nM
IC50 (KRAS G12V; [8]): 100 to 1000 nM
IC50 (KRAS G12D; [9]): 100 to 1000 nM
IC50 (KRAS WT; [10]): 100 to 1000 nM
IC50 (KRAS G12C; [11]): 10 to 100 nM
IC50 (NRAS G12C; [12]): 10 to 100 nM

CCn1c(-c2cccnc2[C@H](C)OC)c2c3cc(ccc31)-c1cc(O)cc(c1)C[C@H](NC(=O)[C@H](C(C)C)N1CC[C@@]3(CCCN(C(=O)[C@H]4CN4)C3)C1=O)C(=O)N1CCC[C@H](N1)C(=O)OCC(C)(C)C2 [Compound 199]
EC50 (AsPC-1 (K-Ras G12D) [1]; [13]): < 5000 nM
IC50 (AsPC-1 (K-Ras G12D) [2]; [14]): 1000 to 10000 nM
IC50 (KRAS G13D; [5]): 100 to 1000 nM
IC50 (KRAS G12S; [6]): 100 to 1000 nM
IC50 (KRAS G13C; [7]): 100 to 1000 nM
IC50 (KRAS G12V; [8]): 100 to 1000 nM
IC50 (KRAS G12D; [9]): 100 to 1000 nM
IC50 (KRAS WT; [10]): 100 to 1000 nM
IC50 (KRAS G12C; [11]): 100 to 1000 nM
IC50 (NRAS G12C; [12]): 100 to 1000 nM

CCn1c(-c2cccnc2[C@H](C)OC)c2c3cc(ccc31)-c1cc(O)cc(c1)C[C@H](NC(=O)[C@H](C(C)C)N(C)C(=O)CN(C)C(=O)[C@H]1N[C@H]1C1CC1)C(=O)N1CCC[C@H](N1)C(=O)OCC(C)(C)C2 [Compound 134]
EC50 (AsPC-1 (K-Ras G12D) [1]; [3]): < 5000 nM
IC50 (AsPC-1 (K-Ras G12D) [2]; read-out: AsPC-1 Cell Viability IC50, AsPC-1, K-Ras G12D, 5-day treatment): 1000 to 10000 nM
IC50 (KRAS G13D): 100 to 1000 nM
IC50 (KRAS G12S): 10 to 100 nM
IC50 (KRAS G13C): 10 to 100 nM
IC50 (KRAS G12V): 100 to 1000 nM
IC50 (KRAS G12D): 100 to 1000 nM
IC50 (KRAS WT): 10 to 100 nM
IC50 (KRAS G12C): 10 to 100 nM
IC50 (NRAS G12C; NRAS G12C FRET data IC50, NRAS G12C): 10 to 100 nM

CCn1c(-c2cnccc2COC)c2c3cc(ccc31)-c1cc(O)cc(c1)C[C@H](NC(=O)[C@H](C(C)C)N(C)C(=O)CN(C)C(=O)[C@H]1[C@@H](C)N1[S@+]([O-])C(C)(C)C)C(=O)N1CCC[C@H](N1)C(=O)OCC(C)(C)C2 (stereo partly shown) [Compound 53]
EC50 (AsPC-1 (K-Ras G12D) [1]; [3]): < 5000 nM
IC50 (AsPC-1 (K-Ras G12D) [2]; [4]): 1000 to 10000 nM
IC50 (KRAS G13D; [5]): 100 to 1000 nM
IC50 (KRAS G12S; [6]): 10 to 100 nM
IC50 (KRAS G13C; [7]): 10 to 100 nM
IC50 (KRAS G12V; [8]): 100 to 1000 nM
IC50 (KRAS G12D; [9]): 100 to 1000 nM
IC50 (KRAS WT; [10]): 10 to 100 nM
IC50 (KRAS G12C; [11]): 10 to 100 nM
IC50 (NRAS G12C; [12]): 10 to 100 nM

CCn1c(-c2cnccc2COC)c2c3cc(ccc31)-c1cc(O)cc(c1)C[C@H](NC(=O)[C@H](C(C)C)N(C)C(=O)CN(C)C(=O)[C@H]1CN1C(=O)OC)C(=O)N1CCC[C@H](N1)C(=O)OCC(C)(C)C2 [Example 38, methyl (2R)-2-((2-(((2S)-1-(((6^3S,4S)-1^1-ethyl-2^5-hydroxy-1^2-(4-(methoxymethyl)pyridin-3-yl)-10,10-dimethyl-5,7-dioxo-6^1,6^2,6^3,6^4,6^5,6^6-hexahydro-1^1H-8-oxa-1(5,3)-indola-6(1,3)-pyridazina-2(1,3)-benzenacycloundecaphane-4-yl)amino)-3-methyl-1-oxobutan-2-yl)(methyl)amino)-2-oxoethyl)(methyl)carbamoyl)aziridine-1-carboxylate]
EC50 (AsPC-1 (K-Ras G12D) [1]; [3]): < 5000 nM
IC50 (AsPC-1 (K-Ras G12D) [2]; [4]): 1000 to 10000 nM
IC50 (KRAS G13D; [5]): 100 to 1000 nM
IC50 (KRAS G12S; [6]): 10 to 100 nM
IC50 (KRAS G13C; [7]): 10 to 100 nM
IC50 (KRAS G12V; [8]): 100 to 1000 nM
IC50 (KRAS G12D; [9]): 100 to 1000 nM
IC50 (KRAS WT; [10]): 100 to 1000 nM
IC50 (KRAS G12C; [11]): 10 to 100 nM
IC50 (NRAS G12C; [12]): 10 to 100 nM

CCn1c(-c2cnccc2COC)c2c3cc(ccc31)-c1cc(O)cc(c1)C[C@H](NC(=O)[C@H](C(C)C)N(C)C(=O)CN(C)C(=O)[C@@H]1CN1C(=O)OC)C(=O)N1CCC[C@H](N1)C(=O)OCC(C)(C)C2 [Compound 39]
EC50 (AsPC-1 (K-Ras G12D) [1]; [3]): < 5000 nM
IC50 (AsPC-1 (K-Ras G12D) [2]; [4]): 1000 to 10000 nM
IC50 (KRAS G13D; [5]): 100 to 1000 nM
IC50 (KRAS G12S; [6]): 10 to 100 nM
IC50 (KRAS G13C; [7]): 10 to 100 nM
IC50 (KRAS G12V; [8]): 100 to 1000 nM
IC50 (KRAS G12D; [9]): 100 to 1000 nM
IC50 (KRAS WT; [10]): 100 to 1000 nM
IC50 (KRAS G12C; [11]): 10 to 100 nM
IC50 (NRAS G12C; [12]): 10 to 100 nM

CCn1c(-c2cccnc2[C@H](C)OC)c2c3cc(ccc31)-c1cc(O)cc(c1)C[C@H](NC(=O)[C@H](C(C)C)N1CC[C@]3(CCCN(C(=O)[C@H]4CN4)C3)C1=O)C(=O)N1CCC[C@H](N1)C(=O)OCC(C)(C)C2 [Compound 200]
EC50 (AsPC-1 (K-Ras G12D) [1]; [13]): < 5000 nM
IC50 (AsPC-1 (K-Ras G12D) [2]; [14]): 1000 to 10000 nM
IC50 (KRAS G13D; [5]): 100 to 1000 nM
IC50 (KRAS G12S; [6]): 10 to 100 nM
IC50 (KRAS G13C; [7]): 10 to 100 nM
IC50 (KRAS G12V; [8]): 10 to 100 nM
IC50 (KRAS G12D; [9]): 100 to 1000 nM
IC50 (KRAS WT; [10]): 100 to 1000 nM
IC50 (KRAS G12C; [11]): < 10 nM
IC50 (NRAS G12C; [12]): < 10 nM

— US11739074B2, “Ras inhibitors” (Revolution Medicines, Inc., priority 2019, dated 2023)
